{"source": "paper PMC6240096", "about": "“A hPSC-based platform to discover gene-environment interactions that impact human β-cell and dopamine neuron survival” (Nature Communications, 2018)", "key": {"mDA neurons": {"tested_on": "mDA neurons", "test": "Survival of hESC-derived midbrain dopamine neurons", "type": "cell-based, human", "quoted_text": "Scale bars, 50 μm. b Relative cell survival rate of cortical- and mDA-neurons treated with DMSO or different doses of propargite. […] White arrows indicate propargite-treated mDA cells (TH; red) co-stained with the DNA damage marker (rH2AX; green), and all cells were counterstained with DAPI (blue). […] Values presented as mean ± S.D. p-value was calculated by unpaired two-tailed Student’s t-test were *p < 0.05, **p < 0.01. n.s. indicates a non-significant difference.\nCortical and mDA differentiation from hESC were done with similar protocols those published by our lab previously[36],[37]."}, "EndoC-βH1 cells": {"tested_on": "EndoC-βH1 cells", "test": "EndoC-βH1 cells carrying sgGSTT1, PI staining", "type": "cell-based, human", "conditions": "1.6 μM propargite", "experimental": "Two sgRNAs targeting two different loci on GSTT1 gene: sgGSTT1-1 and sgGSTT1-2 and a sgRNA targeting GFP (sgGFP)[46] which has no specific targets on the human genome and was used as a control, were cloned into lentiCRISPRv2 vectors (Addgene plasmid # 52961)[47]. EndoC-βH1 cells were infected with the lentivirus carrying Cas9 and sgRNAs. After 2 days of selection with 1 μg/ml puromycin, western blots were used to validate the knockout efficiency."}, "INS- cells": {"tested_on": "INS- cells", "test": "High-content survival / inhibitory curve, hESC-derived INS- cells", "type": "cell-based, human", "conditions": "H1 hESC-derived, β-cell differentiation protocol 1, 4 days treatment, n = 8", "experimental": "The screening library ToxCast Phase I was obtained from the US Environmental Protection Agency, which contains approximately 2000 compounds dissolved at 20 mM in DMSO. The H1 hESC-derived population was dissociated with Accutase and re-plated onto laminin V-coated 384-well plates at 5000 cells per well. After 16 h incubation, cells were treated with individual compounds from the ToxCast library with four concentrations, including 20 nM, 200 nM, 2 μM, and 20 μM, for each compound. After 4 days, the cells were fixed with 10% formalin and stained with an INS antibody and DAPI, followed by automatic imaging and analysis by ImageXpress^MICRO Automated High-Content Analysis System (Molecular Devices) to count the numbers of INS^+ and INS^− cells. The survival rate was calculated by dividing the numbers of INS^+ cells in compound treated conditions by the average number of INS^+ cells in DMSO-treated conditions. The compounds that induced more than 60% reduction of the survival rate of INS^+ cells and less than 20% of the INS^− cells were chosen as primary hits. […]\nhESCs-derived INS^+ cells, MSCs[43], neurons, and hepatocytes[44] were derived based on the reported protocols and re-plated on 96-well plates with Accutase digestion. […] Plates were analyzed by ImageXpress^MICRO Automated High-Content Analysis System."}, "INS+ cells": {"tested_on": "INS+ cells", "test": "High-content survival / inhibitory curve, hESC-derived INS+ cells", "type": "cell-based, human", "conditions": "H1 hESC-derived, β-cell differentiation protocol 1, 4 days treatment, n = 8; read-out: IC50 for INS+ cells", "experimental": "The screening library ToxCast Phase I was obtained from the US Environmental Protection Agency, which contains approximately 2000 compounds dissolved at 20 mM in DMSO. The H1 hESC-derived population was dissociated with Accutase and re-plated onto laminin V-coated 384-well plates at 5000 cells per well. After 16 h incubation, cells were treated with individual compounds from the ToxCast library with four concentrations, including 20 nM, 200 nM, 2 μM, and 20 μM, for each compound. After 4 days, the cells were fixed with 10% formalin and stained with an INS antibody and DAPI, followed by automatic imaging and analysis by ImageXpress^MICRO Automated High-Content Analysis System (Molecular Devices) to count the numbers of INS^+ and INS^− cells. The survival rate was calculated by dividing the numbers of INS^+ cells in compound treated conditions by the average number of INS^+ cells in DMSO-treated conditions. The compounds that induced more than 60% reduction of the survival rate of INS^+ cells and less than 20% of the INS^− cells were chosen as primary hits. Hit compounds were then selected and validated in three additional independent experiments using the same protocol as the primary screening.\n(§1) hESCs-derived INS^+ cells, MSCs[43], neurons, and hepatocytes[44] were derived based on the reported protocols and re-plated on 96-well plates with Accutase digestion. Cardiomyocytes (CMs) were differentiated from H9-MYH6: mCherry reporter line, based on the reported protocol. After overnight incubation, cells were treated with DMSO or different doses of hit compounds for 4 days. After fixation, the cells were stained with markers for each cell type. DAPI was used to stain cell nuclei. Plates were analyzed by ImageXpress^MICRO Automated High-Content Analysis System."}, "GSTT1+/+ INS+ cells": {"tested_on": "GSTT1+/+ INS+ cells", "test": "Inhibition curve on INS+ cells derived from GSTT1+/+ H1 hESCs", "type": "cell-based, human", "conditions": "H1 hESC-derived, n = 3; read-out: IC50 of GSTT1+/+-1 INS+ cells", "experimental": "as §1\n(§2) CRISPR sgRNA sequences were designed using the web resources available at http://www.genome-engineering.org/. The target sequences are listed in Supplementary Table 2. Each target sequence was cloned into the pX330-U6-Chimeric_BB-CBh-hSpCas9 vector (Addgene plasmid #42230) to make the gene targeting constructs. To knockout the target genes, two sgRNAs were validated using the surveyor assay in 293T cells, and we chose 1 sgRNA-construct plasmid for further experiments. After validation, H1 or INS^GFP/W HES3 cells were dissociated using Accutase (STEM CELL) and electroporated (8 × 10^5 cells per sample) with 4 μg sgRNA-construct plasmids using Human Stem Cell Nucleofector^TM solution (Lonza) following manufacturer’s instructions. […] A portion of the cells was analyzed by DNA sequencing. […]"}, "MIN6 cells": {"tested_on": "MIN6 cells", "test": "MIN6 cell survival inhibitory curve", "type": "cell-based, mouse", "conditions": "cell survival rate; read-out: IC50, MIN6 cell death"}, "GSTT1-/- INS+ cells": {"tested_on": "GSTT1-/- INS+ cells", "test": "Inhibition curve on INS+ cells derived from GSTT1-/- H1 hESCs", "type": "cell-based, human", "conditions": "H1 hESC-derived, n = 3; read-out: IC50 for GSTT1-/--1 INS+ cells", "experimental": "as §1, §2"}, "BJ-fibroblasts": {"tested_on": "BJ-fibroblasts", "test": "Inhibition curve on BJ-fibroblasts", "type": "cell-based, human", "conditions": "cell survival rate, 4 days, n=3", "experimental": "as §1\n(§3) Supplementary Figure 4. Assessment of the toxic effect of propargite on different type […]\n(§4) (a) Flow cytometry char acterization of CD29+ and CD73+ mesenchymal stem cells (MSCs) derived from H1 hESCs. (b-c) microscope image (b) and flow cytometry (c) characterization of cardiomyocytes expressing MYH6+ derived from a MYH6:mCherry reporter hESC line. (d-e) Immunocytochemistry characterization of MAP2+/TUJ1+ and HuC/D+/MAP2+ neurons (d) and A1AT+/ASGPR1+ hepatocytes (e) derived from H1 hESCs. All the cells were counterstained by DAPI (blue). Scale bars, 100 µm. (f) Inhibition curve of propargite on pancreatic β-like cells, MSCs, cardiomyocytes, neurons, and hepatocytes derived from hESCs, and BJ-fibroblasts (n=3). Values presented as mean±S.D. […]"}, "HuC/D+ neurons": {"tested_on": "HuC/D+ neurons", "test": "Inhibition curve / survival of hESC-derived neurons", "type": "cell-based, human", "experimental": "as §1, §3, §4"}, "CD29+CD73+ MSCs": {"tested_on": "CD29+CD73+ MSCs", "test": "Inhibition curve on hESC-derived MSCs", "type": "cell-based, human", "conditions": "cell survival rate, 4 days, n=3", "experimental": "as §1, §3, §4"}}, "data": [{"substance": "2-(4-tert-butylphenoxy)-cyclohexyl prop-2-yne-1-sulfonate [propargite]", "values": [{"measurement": "mDA neuron cell death", "setting": "mDA neurons; concentrations at 1 and 3 μM, compared with cortical neurons", "value": "significant mDA neuron cell death"}, {"measurement": "decrease of total cell number in DA neuron cultures", "setting": "mDA neurons; propargite 1 µM, 3 µM", "value": "40-60%"}, {"measurement": "sensitivity of GSTT1-/- hESC-derived mDA neurons vs GSTT1+/+ or GSTM1-/-", "setting": "mDA neurons; propargite 3 μM, FOXA2+ cells", "value": "more sensitive"}, {"measurement": "INS+ cell death in EndoC-βH1 cells expressing sgGSTT1", "setting": "EndoC-βH1 cells", "value": "significant increase"}, {"measurement": "IC50", "setting": "INS- cells", "value": 9.83, "unit": "µM"}, {"measurement": "IC50", "setting": "INS+ cells", "value": 1.09, "unit": "µM"}, {"measurement": "IC50", "setting": "GSTT1+/+ INS+ cells", "value": 2.15, "unit": "µM"}, {"measurement": "IC50", "setting": "MIN6 cells", "value": 1, "unit": "µM"}, {"measurement": "IC50", "setting": "GSTT1-/- INS+ cells", "value": 1.17, "unit": "µM"}, {"measurement": "IC50", "setting": "BJ-fibroblasts", "value": 3, "unit": "µM"}, {"measurement": "susceptibility of HuC/D+ neurons", "setting": "HuC/D+ neurons; 1.6 μM propargite", "value": "highly susceptible"}, {"measurement": "IC50", "setting": "HuC/D+ neurons; cell survival rate, 4 days, n=3", "value": 1.46, "unit": "µM"}, {"measurement": "IC50", "setting": "CD29+CD73+ MSCs", "value": 5.85, "unit": "µM"}]}]}
